Entries after “also recorded” stand apart in the source; their conditions may differ.
These compounds were tested against Keap1 (Kelch domain) (Homo sapiens, UniProt Q14145). Details: SAR discussion.
Keap1 (Kelch domain), sequence (Q14145 321-609): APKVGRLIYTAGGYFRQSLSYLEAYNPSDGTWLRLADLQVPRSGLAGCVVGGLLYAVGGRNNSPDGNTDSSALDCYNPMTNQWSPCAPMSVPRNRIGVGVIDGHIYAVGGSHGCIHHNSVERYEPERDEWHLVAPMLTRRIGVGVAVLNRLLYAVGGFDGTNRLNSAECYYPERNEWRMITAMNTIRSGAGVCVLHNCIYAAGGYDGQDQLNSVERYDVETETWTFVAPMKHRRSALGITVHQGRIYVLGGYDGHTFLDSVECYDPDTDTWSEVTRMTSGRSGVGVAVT
For `O=S(=O)(Nc1ccc(NS(=O)(=O)c2ccccc2)c2ccccc12)c1ccccc1` [Compound 11a, N,N′-(naphthalene-1,4-diyl)dibenzenesulfonamide], the “Activity in fluorescence anisotropy assay (in words)” value (“Activity” for short) was “inactive”.
In the case of `O=C(O)c1cccc(S(=O)(=O)Nc2ccc(NS(=O)(=O)c3cccc(C(=O)O)c3)c3ccccc23)c1` [Compound 11d, 3,3′-(((4-(hydrosulfonylamino)naphthalen-1-yl)amino)sulfonyl)dibenzoic acid], the “Activity” value is reported as “inactive”.
For `O=S(=O)(Nc1ccc(NS(=O)(=O)c2cccc(C(F)(F)F)c2)c2ccccc12)c1cccc(C(F)(F)F)c1` [Compound 11f, N,N′-(naphthalene-1,4-diyl)bis(3-trifluoromethylbenzenesulfonamide)], the “Activity” value was “inactive”.
With `COc1ccc(S(=O)(=O)Nc2cccc3ccccc23)cc1` [Compound 17, 4-methoxy-N-(naphthalen-1-yl)benzenesulfonamide] the “Activity” value was “inactive”.
`COc1ccc(S(=O)(=O)N(CC(=O)O)c2cccc3ccccc23)cc1` [Compound 18, N-((4-methoxyphenyl)sulfonyl)-N-(naphthalen-1-yl)glycine] was tested, and the “Activity” value was “inactive”.
`COc1ccc(S(=O)(=O)Nc2cc(NS(=O)(=O)c3ccc(OC)cc3)c3ccccc3c2)cc1` [Compound 19, N,N′-(naphthalene-1,3-diyl)bis(4-methoxybenzenesulfonamide)] was tested, and the “Activity” value was “loss of activity”.
With `COc1ccc(S(=O)(=O)Nc2cc3ccccc3cc2NS(=O)(=O)c2ccc(OC)cc2)cc1` [Compound 20, N,N′-(naphthalene-2,3-diyl)bis(4-methoxybenzenesulfonamide)] the “Activity” value was “loss of activity”.
For `COc1ccc(S(=O)(=O)N(CC(N)=O)c2cc(N(CC(N)=O)S(=O)(=O)c3ccc(OC)cc3)c3ccccc3c2)cc1` [Compound 21, 2,2′-(naphthalene-1,3-diylbis(((4-methoxyphenyl)sulfonyl)azanediyl))diacetamide], the “Activity” value was “loss of activity; also recorded: inactive”.
In the case of `COc1ccc(S(=O)(=O)N(CC(=O)O)c2cc(N(CC(=O)O)S(=O)(=O)c3ccc(OC)cc3)c3ccccc3c2)cc1` [Compound 22, 2,2′-(naphthalene-1,3-diylbis(((4-methoxyphenyl)sulfonyl)azanediyl))acetic acid], the “Activity” value is reported as “loss of activity”.
`COc1ccc(S(=O)(=O)Nc2cc3ccccc3cc2N(CC(N)=O)S(=O)(=O)c2ccc(OC)cc2)cc1` [Compound 23, 2-(naphthalene-2,3-diylbis(((4-methoxyphenyl)sulfonyl)azanediyl))acetamide] was tested, and the “Activity” value was “loss of activity; also recorded: inactive”.

Reference: PMC4600463 (European journal of medicinal chemistry, 2015)
